Source: patent publication US12644889B2, “Viral condensates and methods of use thereof” (Whitehead Institute for Biomedical Research, priority 2020, dated 2026)

Target: T1, SARS-CoV-2 nucleocapsid condensates (Severe acute respiratory syndrome coronavirus 2, UniProt P0DTC9)
T1 construct: Streptavidin tag (so in the source); made in house; host or cells: HEK cells
Assay: drug partitioning assay in nucleocapsid condensates (confocal fluorescence microscopy)
Settings: in vitro condensates not containing DNA; 10 uM nucleocapsid, 10% PEG, 1-50 uM drug

For `O=C1c2c(O)ccc(O)c2C(=O)c2c(NCCNCCO)ccc(NCCNCCO)c21` [mitoxantrone], the “partitioning of drug into nucleocapsid condensates” value was “partitions into SARS-CoV-2 nucleocapsid condensates not containing DNA”.
